Data taken from patent US7494998B2, “Benzisoxazole piperazine compounds and methods of use thereof” (Hypnion, Inc., priority 2005, dated 2009).

Experiments:
male Wistar rats = experiment: Sleep-wakefulness monitoring (EEG/EMG, SCORE-2004) in rats after oral treatment at CT-18; type: in vivo, rat; details: for MAXIMUM NREM SLEEP CUMULATION 10 mg/kg / LONGEST UNINTERRUPTED SLEEP BOUT 10 mg/kg: 10 mg/kg oral at CT-18; for MAXIMUM NREM SLEEP CUMULATION 30 mg/kg / LONGEST UNINTERRUPTED SLEEP BOUT 30 mg/kg: 30 mg/kg oral at CT-18; for MAXIMUM NREM SLEEP CUMULATION 3 mg/kg / LONGEST UNINTERRUPTED SLEEP BOUT 3 mg/kg: 3 mg/kg oral at CT-18
Method: Sleep-wakefulness, locomotor activity and body temperature are monitored in male Wistar rats treated with a test compound (i.e., benzisoxazole analog) initially at a concentration of 10 mg/kg. Higher and lower doses are assayed for select compounds (e.g., as high as 45 mg/kg, and as low as necessary to establish a no-effect dose). Treatments are administered at CT-18, the peak of the activity dominated period (6 hours after lights-off), and produced soporific (sleep-inducing) effects characterized by increased non-REM sleep time, increased sleep continuity, but without evidence of REM sleep inhibition or rebound insomnia.
Sleep-wakefulness, locomotor activity and body temperature were monitored in vivo with various compounds of the invention. Adult, male Wistar rats (250 g at time of surgery, Charles River Laboratories, Wilmington Mass.) were anesthetized (2% isoflourane in medical grade oxygen) and surgically prepared with a cranial implant to permit chronic electro-encephalogram (EEG) and electromyogram (EMG) recording. Body temperature and locomotor activity were monitored via a miniature transmitter (Mini-Mitter, Bend, Oreg.) surgically placed in the abdomen. The cranial implant consisted of stainless steel screws (two frontal [+3.2 AP from bregma, ±2.0 ML] and two occipital [−6.9 AP, ±5.5 ML]) for EEG recording. Two Teflon®-coated stainless steel wires were positioned under the nuchal trapezoid muscles for EMG recording. All leads were soldered to a miniature connector prior to surgery, and gas sterilized in ethylene oxide. The implant assembly was affixed to the skull with dental acrylic. A minimum of three weeks was allowed for surgical recovery.
Each rat was permanently housed in its own individual recording cage located within separate, ventilated compartments of custom-designed stainless steel cabinets. Each cage was enhanced with a filter-top riser and low-torque swivel-commutator. Food and water were available ad libitum. A 24-hr light-dark cycle (12 hours light, 12 hours dark) was maintained throughout the study. Animals were undisturbed for at least 48 hours before and after treatments.
Sleep and wakefulness were determined using “SCORE-2004™” (Hypnion, Worcester, Mass.)—an internet-based sleep-wake and physiological monitoring system. The system monitored amplified EEG (bandpass 1-30 Hz), integrated EMG (bandpass 10-100 Hz), body temperature and non-specific locomotor activity (LMA) via telemetry, and drinking activity, continuously and simultaneously. Arousal states were classified on-line as non-REM (NREM) sleep, REM sleep, wake, or theta-dominated wake every 10 seconds. Total drinking and locomotor activity counts, and body temperature were quantitiated and recorded each minute, using EEG feature extraction and pattern-matching algorithms. […] The classification algorithm used individually-taught EEG-arousal-state templates, plus EMG criteria to differentiate REM sleep from theta-dominated wakefulness, plus behavior-dependent contextual rules (e.g., if the animal was drinking, it is awake). Drinking and locomotor activity intensity (LMA) were recorded every 10 seconds, while body temperature was recorded each minute. Locomotor activity was detected by a telemetry receiver (Mini-Mitter) beneath the cage. Telemetry measures (LMA and body temperature) were not part of the scoring algorithm; thus, sleep-scoring and telemetry data were independent measures.
Compounds were administered at CT-18, the peak of the activity-dominated period, sufficient time was allowed to view the time course of the treatment effect before lights-on (6 hours post-treatment). Compounds were suspended in sterile 0.25% or 0.5% methylcellulose (1-2 ml/kg). Treatments were administered orally as a bolus.
A parallel group study design was employed. […]

[1] = target: T1, human recombinant M1 expressed in CHO cells (Homo sapiens, UniProt P11229); details: reference compounds of the M1 assay; read-out: Ki (M1 binding assay, reference compounds); cited from earlier work
T1 construct: expressed in transfected cells; host or cells: CHO cells
T1 sequence (P11229 1-460): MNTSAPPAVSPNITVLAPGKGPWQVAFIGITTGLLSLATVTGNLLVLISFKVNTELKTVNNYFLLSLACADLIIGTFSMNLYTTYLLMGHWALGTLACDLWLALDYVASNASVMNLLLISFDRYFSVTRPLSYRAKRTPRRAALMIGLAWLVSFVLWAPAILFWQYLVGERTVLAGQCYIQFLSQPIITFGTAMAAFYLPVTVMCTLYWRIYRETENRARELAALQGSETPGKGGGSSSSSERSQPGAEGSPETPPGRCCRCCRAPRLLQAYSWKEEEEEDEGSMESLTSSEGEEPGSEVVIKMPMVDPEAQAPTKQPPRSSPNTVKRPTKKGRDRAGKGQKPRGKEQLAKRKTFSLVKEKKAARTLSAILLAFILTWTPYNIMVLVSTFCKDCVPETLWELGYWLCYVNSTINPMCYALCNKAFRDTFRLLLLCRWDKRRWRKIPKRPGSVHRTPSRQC

[2] = cumulative nonREM sleep defined in minutes, in min
[3] = sleep bout length defined in minutes

SMILES | MAXIMUM NREM SLEEP CUMULATION 10 mg/kg (male Wistar rats; [2]) | LONGEST UNINTERRUPTED SLEEP BOUT 10 mg/kg (male Wistar rats; [3]) | MAXIMUM NREM SLEEP CUMULATION 30 mg/kg (male Wistar rats; [2]) | LONGEST UNINTERRUPTED SLEEP BOUT 30 mg/kg (male Wistar rats; [3]) | Ki [1] | MAXIMUM NREM SLEEP CUMULATION 3 mg/kg (male Wistar rats; [2]) | LONGEST UNINTERRUPTED SLEEP BOUT 3 mg/kg (male Wistar rats; [3]) | MAXIMUM NREM SLEEP CUMULATION 1 mg/kg (male Wistar rats; 1 mg/kg oral at CT-18, cumulative nonREM sleep defined in minutes, in min) | LONGEST UNINTERRUPTED SLEEP BOUT 1 mg/kg (male Wistar rats; 1 mg/kg oral at CT-18, sleep bout length defined in minutes)
CC(C)(CN1CCN(c2noc3ccc(F)cc23)CC1)C(=O)O [Compound 6] | 18 | 9.8 | 26 | 13.5 |  |  |  |  | 
C[N+]1(C)CCC(OC(=O)C(c2ccccc2)c2ccccc2)CC1 [4-DAMP methiodide] |  |  |  |  | 270 pM |  |  |  | 
O=C(O)CCN1CCN(c2noc3ccccc23)CC1 [Compound 4] | 27 | 9.9 |  |  |  |  |  |  | 
O=C(O)C1(CN2CCN(c3noc4ccccc34)CC2)CC1 [Compound 5] | 37 | 5.1 | 45 | 7.2 |  | 40 | 3.0 |  | 
Cc1ccc2c(N3CCN(CC(C)(C)C(=O)O)CC3)noc2c1 [Compound 9] | 29 | 12.9 |  |  |  | 24 | 13.6 |  | 
Cc1ccc2onc(N3CCN(CCC(=O)O)CC3)c2c1 [Compound 12] | 16 | 7.3 |  |  |  |  |  |  | 
Cc1ccc2onc(N3CCN(CCCC(=O)O)CC3)c2c1 [Compound 13] | 7 | −5.6 |  |  |  |  |  |  | 
CC(C)(CN1CCN(c2noc3ccccc23)CC1)C(=O)O [Compound 1] | 26 | 14.4 | 50 | 16.2 |  | 16 | 9.3 | 20 | 6.0
O=C(O)CCCN1CCN(c2noc3ccccc23)CC1 [Compound 10] | 22 | 10.7 | 24 | 9.9 |  |  |  |  | 
CC(C)(CN1CCN(c2noc3ccccc23)CC1)C(=O)NS(C)(=O)=O [Compound 3] | 25 | 5.2 | 27 | 12.3 |  |  |  |  | 
Cc1ccc2onc(N3CCN(CC(C)(C)C(=O)O)CC3)c2c1 [Compound 8] | 29 | 8.6 | 37 | 14.3 |  | 15 | 4.8 |  | 
COc1ccc2onc(N3CCN(CC(C)(C)C(=O)O)CC3)c2c1 [Compound 7] | 6 | −2.5 |  |  |  |  |  |  | 
